Results reported in publication PMC6704710, “Preclinical evaluation of 3D185, a novel potent inhibitor of FGFR1/2/3 and CSF-1R, in FGFR-dependent and macrophage-dominant cancer models” (Journal of Experimental & Clinical Cancer Research : CR, 2019).

Key:
Test in all cases: Eurofins kinase panel
Type in all cases: biochemical
Details in all cases: read-out: Inhibition rate (%)
B-Raf(h) = target: T1, B-Raf(h) (Homo sapiens, UniProt P15056)
T1 construct: purchased Eurofins (KinaseProfiler)

BrSK1(h) = target: T2, BrSK1(h) (Homo sapiens, UniProt Q8TDC3)
T2 construct: purchased Eurofins (KinaseProfiler)
T2 sequence (Q8TDC3 1-778): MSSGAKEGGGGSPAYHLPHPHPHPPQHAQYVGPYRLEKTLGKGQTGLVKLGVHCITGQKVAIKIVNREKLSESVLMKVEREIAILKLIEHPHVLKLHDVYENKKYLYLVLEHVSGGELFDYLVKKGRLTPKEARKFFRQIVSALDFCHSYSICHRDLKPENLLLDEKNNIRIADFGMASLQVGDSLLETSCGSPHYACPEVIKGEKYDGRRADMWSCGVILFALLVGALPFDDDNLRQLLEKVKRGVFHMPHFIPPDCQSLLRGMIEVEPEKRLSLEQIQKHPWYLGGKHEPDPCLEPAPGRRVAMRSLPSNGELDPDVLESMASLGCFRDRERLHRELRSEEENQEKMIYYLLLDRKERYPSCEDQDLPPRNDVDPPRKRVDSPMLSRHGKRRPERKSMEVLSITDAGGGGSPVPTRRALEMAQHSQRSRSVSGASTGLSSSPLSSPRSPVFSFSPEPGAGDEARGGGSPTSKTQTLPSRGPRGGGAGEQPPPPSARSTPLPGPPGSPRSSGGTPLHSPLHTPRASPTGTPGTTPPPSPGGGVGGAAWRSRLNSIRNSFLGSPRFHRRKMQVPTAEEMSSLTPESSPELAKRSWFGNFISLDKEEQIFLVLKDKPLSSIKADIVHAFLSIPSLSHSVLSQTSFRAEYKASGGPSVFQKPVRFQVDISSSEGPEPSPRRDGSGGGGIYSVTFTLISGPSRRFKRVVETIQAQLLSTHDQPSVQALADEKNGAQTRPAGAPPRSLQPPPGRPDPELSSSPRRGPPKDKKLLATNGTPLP

CLK1(h) = target: T3, CLK1(h) (Homo sapiens, UniProt P49759)
T3 construct: purchased Eurofins (KinaseProfiler)

PRKG2(h) = target: T4, PRKG2(h) (Homo sapiens, UniProt Q13237)
T4 construct: purchased Eurofins (KinaseProfiler)
T4 sequence (Q13237 1-762): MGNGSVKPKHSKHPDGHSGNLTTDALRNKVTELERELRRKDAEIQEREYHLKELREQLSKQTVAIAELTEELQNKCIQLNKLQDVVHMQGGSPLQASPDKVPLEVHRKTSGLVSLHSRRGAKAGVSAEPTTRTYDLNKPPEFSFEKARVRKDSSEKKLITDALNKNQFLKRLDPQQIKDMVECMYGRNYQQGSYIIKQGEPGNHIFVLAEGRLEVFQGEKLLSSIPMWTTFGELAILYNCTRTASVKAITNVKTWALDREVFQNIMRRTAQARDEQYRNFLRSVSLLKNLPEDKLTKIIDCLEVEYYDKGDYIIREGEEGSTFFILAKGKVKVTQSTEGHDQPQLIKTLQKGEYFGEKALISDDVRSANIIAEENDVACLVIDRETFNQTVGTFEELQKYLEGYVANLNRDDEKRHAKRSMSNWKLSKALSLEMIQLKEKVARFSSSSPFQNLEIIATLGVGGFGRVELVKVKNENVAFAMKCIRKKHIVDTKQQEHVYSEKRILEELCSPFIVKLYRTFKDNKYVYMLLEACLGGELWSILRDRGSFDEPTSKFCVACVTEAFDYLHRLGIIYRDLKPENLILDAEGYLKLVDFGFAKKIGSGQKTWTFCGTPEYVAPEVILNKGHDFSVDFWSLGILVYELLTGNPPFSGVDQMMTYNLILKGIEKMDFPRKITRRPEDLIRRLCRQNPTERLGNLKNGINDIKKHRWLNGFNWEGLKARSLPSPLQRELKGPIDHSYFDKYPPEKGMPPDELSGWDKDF

SLK(h) = target: T5, SLK(h) (Homo sapiens, UniProt Q9H2G2)
T5 construct: purchased Eurofins (KinaseProfiler)

TAO3(h) = target: T6, TAO3(h) (Homo sapiens, UniProt Q9H2K8)
T6 construct: purchased Eurofins (KinaseProfiler)
T6 sequence (Q9H2K8 1-898): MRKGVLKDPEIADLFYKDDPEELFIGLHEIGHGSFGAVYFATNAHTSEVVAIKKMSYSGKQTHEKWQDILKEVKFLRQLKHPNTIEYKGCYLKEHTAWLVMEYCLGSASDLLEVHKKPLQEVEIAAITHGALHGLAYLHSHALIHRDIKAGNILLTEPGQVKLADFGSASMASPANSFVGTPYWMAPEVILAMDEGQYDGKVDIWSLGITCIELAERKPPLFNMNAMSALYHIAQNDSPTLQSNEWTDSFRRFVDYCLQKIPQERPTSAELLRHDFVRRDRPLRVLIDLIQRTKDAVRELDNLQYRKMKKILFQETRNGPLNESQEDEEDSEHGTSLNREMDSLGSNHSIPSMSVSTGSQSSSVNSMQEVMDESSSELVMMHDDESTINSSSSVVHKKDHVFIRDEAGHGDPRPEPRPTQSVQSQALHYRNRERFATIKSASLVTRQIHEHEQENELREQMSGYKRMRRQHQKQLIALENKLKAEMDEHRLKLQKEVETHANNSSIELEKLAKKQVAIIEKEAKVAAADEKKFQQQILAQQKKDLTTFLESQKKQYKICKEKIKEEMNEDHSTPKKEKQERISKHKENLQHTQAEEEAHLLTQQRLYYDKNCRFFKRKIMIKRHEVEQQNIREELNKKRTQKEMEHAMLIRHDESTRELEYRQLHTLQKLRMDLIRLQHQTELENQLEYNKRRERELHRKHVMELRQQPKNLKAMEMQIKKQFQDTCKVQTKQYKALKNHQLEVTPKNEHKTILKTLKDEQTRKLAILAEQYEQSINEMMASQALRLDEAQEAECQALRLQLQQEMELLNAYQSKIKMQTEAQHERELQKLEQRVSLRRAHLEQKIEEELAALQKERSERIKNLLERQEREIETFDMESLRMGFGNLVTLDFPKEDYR

T1 sequence (P15056 whole entry): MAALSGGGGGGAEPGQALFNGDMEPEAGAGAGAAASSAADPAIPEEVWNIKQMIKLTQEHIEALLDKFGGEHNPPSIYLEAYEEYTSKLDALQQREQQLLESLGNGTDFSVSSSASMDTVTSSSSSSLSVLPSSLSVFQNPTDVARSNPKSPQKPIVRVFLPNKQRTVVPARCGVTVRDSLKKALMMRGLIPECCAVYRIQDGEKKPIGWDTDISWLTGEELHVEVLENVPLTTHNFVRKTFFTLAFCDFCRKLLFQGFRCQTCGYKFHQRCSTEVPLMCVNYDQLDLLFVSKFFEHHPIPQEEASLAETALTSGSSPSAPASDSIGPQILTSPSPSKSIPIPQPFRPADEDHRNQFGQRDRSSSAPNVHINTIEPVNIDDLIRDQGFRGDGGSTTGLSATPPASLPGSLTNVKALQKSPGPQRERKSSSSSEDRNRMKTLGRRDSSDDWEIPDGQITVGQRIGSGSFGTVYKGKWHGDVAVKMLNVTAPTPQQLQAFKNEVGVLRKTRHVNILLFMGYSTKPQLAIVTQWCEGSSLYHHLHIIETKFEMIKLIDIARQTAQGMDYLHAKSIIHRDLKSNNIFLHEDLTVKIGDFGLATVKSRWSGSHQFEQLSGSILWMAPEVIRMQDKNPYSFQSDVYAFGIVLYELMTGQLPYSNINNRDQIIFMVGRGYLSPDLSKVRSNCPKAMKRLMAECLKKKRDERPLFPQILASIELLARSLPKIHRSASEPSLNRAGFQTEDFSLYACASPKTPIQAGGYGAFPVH
T5 sequence (Q9H2G2 whole entry): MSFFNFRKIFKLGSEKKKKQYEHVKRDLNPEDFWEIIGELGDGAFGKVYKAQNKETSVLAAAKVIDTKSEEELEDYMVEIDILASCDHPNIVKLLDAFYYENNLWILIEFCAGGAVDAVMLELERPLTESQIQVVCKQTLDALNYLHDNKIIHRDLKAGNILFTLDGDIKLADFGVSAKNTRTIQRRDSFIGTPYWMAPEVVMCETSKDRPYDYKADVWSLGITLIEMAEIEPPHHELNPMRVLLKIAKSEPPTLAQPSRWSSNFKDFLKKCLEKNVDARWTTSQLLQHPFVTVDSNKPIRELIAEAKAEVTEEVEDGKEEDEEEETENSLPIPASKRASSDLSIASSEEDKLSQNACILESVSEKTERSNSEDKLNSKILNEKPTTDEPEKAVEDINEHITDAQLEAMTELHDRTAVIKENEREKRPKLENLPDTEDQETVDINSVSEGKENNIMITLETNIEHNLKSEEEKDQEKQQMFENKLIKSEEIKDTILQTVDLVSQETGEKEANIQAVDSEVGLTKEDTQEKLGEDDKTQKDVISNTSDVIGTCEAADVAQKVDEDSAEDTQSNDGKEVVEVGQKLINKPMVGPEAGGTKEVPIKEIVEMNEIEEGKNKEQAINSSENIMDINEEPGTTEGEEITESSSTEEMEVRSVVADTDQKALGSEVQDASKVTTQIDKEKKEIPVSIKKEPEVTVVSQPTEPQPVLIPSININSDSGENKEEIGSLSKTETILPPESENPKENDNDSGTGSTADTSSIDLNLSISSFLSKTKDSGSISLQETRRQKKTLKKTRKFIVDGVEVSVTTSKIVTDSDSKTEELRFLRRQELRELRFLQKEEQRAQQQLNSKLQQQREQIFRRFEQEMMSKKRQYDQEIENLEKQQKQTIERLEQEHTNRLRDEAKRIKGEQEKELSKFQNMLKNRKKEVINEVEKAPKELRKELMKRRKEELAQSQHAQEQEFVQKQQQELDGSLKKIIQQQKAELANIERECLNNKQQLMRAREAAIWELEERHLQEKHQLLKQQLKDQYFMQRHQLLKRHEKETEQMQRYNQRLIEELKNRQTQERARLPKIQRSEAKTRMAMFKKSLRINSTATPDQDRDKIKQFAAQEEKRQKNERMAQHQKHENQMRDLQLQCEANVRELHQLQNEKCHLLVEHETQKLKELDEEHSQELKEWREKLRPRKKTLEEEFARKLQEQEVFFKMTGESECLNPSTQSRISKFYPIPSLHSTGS
T3 sequence (P49759 whole entry): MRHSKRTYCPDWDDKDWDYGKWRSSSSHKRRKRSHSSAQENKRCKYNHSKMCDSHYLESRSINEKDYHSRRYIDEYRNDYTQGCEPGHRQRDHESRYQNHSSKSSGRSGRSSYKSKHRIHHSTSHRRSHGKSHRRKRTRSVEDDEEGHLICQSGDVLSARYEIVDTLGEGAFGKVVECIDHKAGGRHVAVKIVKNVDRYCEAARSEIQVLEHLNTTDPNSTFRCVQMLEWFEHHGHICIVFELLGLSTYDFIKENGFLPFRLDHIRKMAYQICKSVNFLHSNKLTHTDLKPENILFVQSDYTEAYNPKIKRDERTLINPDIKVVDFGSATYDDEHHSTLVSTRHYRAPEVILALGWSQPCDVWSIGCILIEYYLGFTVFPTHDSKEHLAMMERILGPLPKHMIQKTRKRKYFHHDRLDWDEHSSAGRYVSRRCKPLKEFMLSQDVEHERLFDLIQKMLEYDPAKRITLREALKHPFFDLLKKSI

## COc1cc(OC)c(Cl)c(-c2ccc3c(NC(=O)c4ccc(N5CCNC(C)(C)C5)cc4)n[nH]c3n2)c1Cl [3D185]
B-Raf(h); 10 nM
  inhibition at 0.01 µM: -4%
B-Raf(h); 100 nM
  inhibition at 0.1 µM: -5%
B-Raf(h); 1000 nM
  inhibition at 1 µM: 5%
BrSK1(h); 10 nM
  inhibition at 0.01 µM: 13%
BrSK1(h); 100 nM
  inhibition at 0.1 µM: 11%
BrSK1(h); 1000 nM
  inhibition at 1 µM: 11%
CLK1(h); 10 nM
  inhibition at 0.01 µM: -7%
CLK1(h); 100 nM
  inhibition at 0.1 µM: -5%
CLK1(h); 1000 nM
  inhibition at 1 µM: 7%
PRKG2(h); 10 nM
  inhibition at 0.01 µM: 1%
PRKG2(h); 100 nM
  inhibition at 0.1 µM: 3%
PRKG2(h); 1000 nM
  inhibition at 1 µM: 3%
SLK(h); 10 nM
  inhibition at 0.01 µM: 10%
SLK(h); 100 nM
  inhibition at 0.1 µM: 34%
SLK(h); 1000 nM
  inhibition at 1 µM: 81%
TAO3(h); 10 nM
  inhibition at 0.01 µM: -1%
TAO3(h); 100 nM
  inhibition at 0.1 µM: 7%
TAO3(h); 1000 nM
  inhibition at 1 µM: 36%
